# Like-named read-outs stand apart in the source and are kept apart here. Starred links: 1 amine or outer side, 2 acyl side, 3 side chain; linkers in the order of their positions; H or OH if unused. Positions of bridges follow the written chain, without caps; N, C: chain ends. Non-standard residues stand in square brackets, D forms with d. Residues, ends and D or L forms follow the SMILES beside them. *: point of attachment. hTyr(3S-OH,4S-OH,3'-OSO3H) = N[C@H](C(=O)O)[C@H](O)[C@@H](O)c1ccc(O)c(OS(=O)(=O)O)c1; pTerphenylCO(4''-OnC5H11) = CCCCCOc1ccc(-c2ccc(-c3ccc(C(=O)*)cc3)cc2)cc1; Orn(4R-OH,5R-OH) = O=C([C@H](C[C@@H](O)[C@@H](O)N[*:3])N[*:1])[*:2]; hTyr(3S-OH,4S-OH) = N[C@H](C(=O)O)[C@H](O)[C@@H](O)c1ccc(O)cc1; Pro(3S-OH,4S-Me) = C[C@H]1CN[C@H](C(=O)O)[C@H]1O; X1 = CCCCCOc1ccc(-c2cc(-c3ccc(C(=O)*)cc3)no2)cc1; Gln(3R-OH) = NC(=O)C[C@@H](O)[C@H](N)C(=O)O; Hyp = O=C(O)[C@@H]1C[C@@H](O)CN1
# How the values were obtained:
# [1] = system: Aspergillus nidulans; conditions: 192 isolates; cited from earlier work
# [2] = in vivo; conditions: Sprague-Dawley, rat
# Procedure: Tissue specimens (lung, liver and kidney) were collected from three animals per time point at 0.5, 2, 24 and 48 hours and 7 days after dose administration. All tissue specimens were stored frozen at approximately −70° C. until analyzed.
# In Vivo Details: Thirty Sprague-Dawley derived rats [Crl:CD®(CD)Br] were obtained from Charles River Laboratories, Inc., Wilmington, Mass., for use in this study. The rats were 52 days of age (approximately 7.5 weeks) upon arrival. One day following receipt, body weights of the rats ranged from 171 g to 213 g. The animals were held in quarantine for 7 days prior to administration of the test article. […] Before being released from quarantine, the animals were given a detailed, hand-held physical examination to ensure their health and suitability as test subjects. The test animals were approximately 8.5 weeks old at the start of the first exposure to the test article.
# The resulting solution was aseptically filtered and kept refrigerated between 2-8° C. until used.
# Test Article Dosing: The animals were randomized into two groups of 15 animals based on body weight.
# Inhalation Exposure Methods:
# All study animals surviving to scheduled necropsy were euthanized by an overdose of an intraperitoneal injection of sodium pentobarbital at 35-45 mg/kg. Tissue specimens (lung, liver and kidney) were collected from three animals per time point at 0.5, 2, 24 and 48 hours and 7 days after dose administration. All tissue specimens were stored frozen at approximately −70° C. until analyzed.
# After shaking for five minutes, the sample was centrifuged at 4° C. for 10 minutes to remove precipitated proteins and supernatant was transferred to an autosampler tube, diluted with 0.5 mL of water, and vortex-mixed for instrumental analysis.
# Subsequently, 100 μL of the supernatant was transferred to a 2 mL centrifuge tube and processed for analysis using the same procedure as for plasma.
# Tissue results in ng were converted to g/g using the amount of tissue extracted and the final extract volume.
# [3] = system: Aspergillus fumigatus; conditions: 1691 isolates; cited from earlier work
# [4] = system: Candida parapsilosis; conditions: 759 isolates; cited from earlier work
# [5] = system: Aspergillus terrus; conditions: 385 isolates; cited from earlier work
# [6] = system: Candida galbrata; conditions: 747 isolates; cited from earlier work
# [7] = system: Aspergillus niger; conditions: 10 isolates; cited from earlier work
# [8] = system: Aspergillus flavus; conditions: 13 isolates; cited from earlier work
# [9] = Toxicology observations in the rat inhalation/IV study (mortality, clinical signs, body weight, necropsy); type: in vivo; conditions: male rats, nose-only inhalation or intravenous injection, 2 mg/kg
# Procedure: A detailed, hand-held physical examination was conducted on all animals once during the quarantine period (prior to randomization). During the treatment period, the animals were observed daily for mortality or evidence of moribundity; these checks were separated by a minimum of four hours. Daily cage-side clinical observations were conducted during exposure, and daily hand-held clinical observations were conducted before and after exposure. Observations included, but were not limited to the following: changes in the skin and fur, eyes, and mucous membranes; effects on the respiratory, circulatory, autonomic and central nervous systems; and effects on somatomotor activity and behavior pattern.
# Body Weights and Body Weight Changes: Body weights were determined one day after animal receipt; at randomization; and prior to exposure on Study Day 1, 2, 3 and 7 (as applicable based on scheduled euthanization).
# [10] = system: Candida tropicalis; conditions: 625 isolates; cited from earlier work
# [11] = rat, 2 mg/kg, cited from earlier work
# [12] = system: Aspergillus versicolor; conditions: 75 isolates; cited from earlier work
# [13] = system: Aspergillus fumigatus; conditions: 56 isolates; cited from earlier work
# [14] = system: Aspergillus nidulans; conditions: 13 isolates; cited from earlier work
# [15] = system: Aspergillus flavus; conditions: 432 isolates; cited from earlier work
# [16] = system: Aspergillus niger; conditions: 440 isolates; cited from earlier work
# [17] = system: Candida albicans; conditions: 2869 isolates; cited from earlier work
# [18] = system: Aspergillus terrus; conditions: 11 isolates; cited from earlier work
# [19] = system: Candida krusei; conditions: 136 isolates; cited from earlier work
# [20] = system: Candida guilliermondii; conditions: 61 isolates; cited from earlier work
# [21] = cited from earlier work
# [22] = rat, intravenous; cited from earlier work
structure (smiles),measurement,setting,value
"CC[C@H](C)C[C@H](C)CCCCCCCCC(=O)N[C@H]1C[C@@H](O)[C@@H](NCCN)NC(=O)[C@@H]2[C@@H](O)CCN2C(=O)[C@H]([C@H](O)CCN)NC(=O)[C@H]([C@H](O)[C@@H](O)c2ccc(O)cc2)NC(=O)[C@@H]2C[C@@H](O)CN2C(=O)[C@H]([C@@H](C)O)NC1=O [Caspofungin, caspofungin]","MEC Average (Mode, most frequent MEC)",[1],0.12 µg/mL
same,MEC Range,[1],0.032 to 16 µg/mL
same,concentration at 0.5 h,"[2]; kidney, inhaled, 2 mg/kg",160 ng/g
same,concentration at 2 h,"[2]; kidney, inhaled, 2 mg/kg",160 ng/g
same,concentration at 24 h,"[2]; kidney, inhaled, 2 mg/kg",160 ng/g
same,concentration at 48 h,"[2]; kidney, inhaled, 2 mg/kg",120 ng/g
same,concentration at 168 h,"[2]; kidney, inhaled, 2 mg/kg",20 ng/g
same,concentration at 0.5 h,"[2]; kidney, iv, 2 mg/kg",500 ng/g
same,concentration at 2 h,"[2]; kidney, iv, 2 mg/kg",670 ng/g
same,concentration at 24 h,"[2]; kidney, iv, 2 mg/kg",500 ng/g
same,concentration at 0.5 h,"[2]; liver, inhaled, 2 mg/kg",90 ng/g
same,concentration at 2 h,"[2]; liver, inhaled, 2 mg/kg",130 ng/g
same,concentration at 24 h,"[2]; liver, inhaled, 2 mg/kg",300 ng/g
same,concentration at 48 h,"[2]; liver, inhaled, 2 mg/kg",180 ng/g
same,concentration at 168 h,"[2]; liver, inhaled, 2 mg/kg",20 ng/g
same,concentration at 0.5 h,"[2]; liver, iv, 2 mg/kg",250 ng/g
same,concentration at 2 h,"[2]; liver, iv, 2 mg/kg",310 ng/g
same,concentration at 24 h,"[2]; liver, iv, 2 mg/kg",660 ng/g
same,concentration at 0 h,"[2]; lung, inhaled, 2 mg/kg",10800 ng/g
same,concentration at 0.5 h,"[2]; lung, inhaled, 2 mg/kg",10800 ng/g
same,concentration at 2 h,"[2]; lung, inhaled, 2 mg/kg",10400 ng/g
same,concentration at 24 h,"[2]; lung, inhaled, 2 mg/kg",5310 ng/g
same,concentration at 39 h,"[2]; lung, inhaled, 2 mg/kg",5420 ng/g
same,concentration at 48 h,"[2]; lung, inhaled, 2 mg/kg",3370 ng/g
same,concentration at 78 h,"[2]; lung, inhaled, 2 mg/kg",2710 ng/g
same,concentration at 117 h,"[2]; lung, inhaled, 2 mg/kg",1350 ng/g
same,concentration at 156 h,"[2]; lung, inhaled, 2 mg/kg",680 ng/g
same,concentration at 168 h,"[2]; lung, inhaled, 2 mg/kg",390 ng/g
same,concentration at 195 h,"[2]; lung, inhaled, 2 mg/kg",340 ng/g
same,concentration at 273 h,"[2]; lung, inhaled, 2 mg/kg",80 ng/g
same,concentration at 312 h,"[2]; lung, inhaled, 2 mg/kg",40 ng/g
same,concentration at 351 h,"[2]; lung, inhaled, 2 mg/kg",20 ng/g
same,concentration at 0 h,"[2]; lung, inhaled, 7.2 mg/kg",39000 ng/g
same,concentration at 39 h,"[2]; lung, inhaled, 7.2 mg/kg",19500 ng/g
same,concentration at 78 h,"[2]; lung, inhaled, 7.2 mg/kg",9750 ng/g
same,concentration at 117 h,"[2]; lung, inhaled, 7.2 mg/kg",4880 ng/g
same,concentration at 156 h,"[2]; lung, inhaled, 7.2 mg/kg",2440 ng/g
same,concentration at 195 h,"[2]; lung, inhaled, 7.2 mg/kg",1220 ng/g
same,concentration at 273 h,"[2]; lung, inhaled, 7.2 mg/kg",300 ng/g
same,concentration at 312 h,"[2]; lung, inhaled, 7.2 mg/kg",150 ng/g
same,concentration at 351 h,"[2]; lung, inhaled, 7.2 mg/kg",80 ng/g
same,concentration at 0.5 h,"[2]; lung, iv, 2 mg/kg",590 ng/g
same,concentration at 2 h,"[2]; lung, iv, 2 mg/kg",540 ng/g
same,concentration at 24 h,"[2]; lung, iv, 2 mg/kg",180 ng/g
same,concentration at 48 h,"[2]; lung, iv, 2 mg/kg",90 ng/g
same,concentration at 168 h,"[2]; lung, iv, 2 mg/kg",0 ng/g
same,concentration at 0.5 h,"[2]; plasma, inhaled, 2 mg/kg",2030 ng/mL
same,concentration at 24 h,"[2]; plasma, inhaled, 2 mg/kg",230 ng/mL
same,concentration at 48 h,"[2]; plasma, inhaled, 2 mg/kg",80 ng/mL
same,concentration at 168 h,"[2]; plasma, inhaled, 2 mg/kg",0 ng/mL
same,concentration at 0.5 h,"[2]; plasma, iv, 2 mg/kg",11000 ng/mL
same,concentration at 2 h,"[2]; plasma, iv, 2 mg/kg",7720 ng/mL
same,concentration at 24 h,"[2]; plasma, iv, 2 mg/kg",800 ng/mL
same,"MEC Average (Mode, most frequent MEC)",[3],0.25 µg/mL
same,MEC Range,[3],0.016 to 32 µg/mL
same,MIC90,[4],2 µg/mL
same,"MEC Average (Mode, most frequent MEC)",[5],0.06 µg/mL
same,MEC Range,[5],0.016 to 2 µg/mL
same,MIC90,[6],0.12 µg/mL
same,MIC90 Average (Geometric Mean MIC),[7],0.14 µg/mL
same,MIC90 Range,[7],0.06 to 0.5 µg/mL
same,MIC90 Average (Geometric Mean MIC),[8],0.2 µg/mL
same,MIC90 Range,[8],0.06 to 2 µg/mL
same,clinical signs of toxicity,[9],no clinical signs of toxicity
same,effects on body weight,[9],no effects on body weight
same,gross necropsy findings,[9],no gross necropsy findings attributable to exposure to the test article
same,test-article related mortality,[9],no test-article related mortality
same,MIC90,[10],0.06 µg/mL
same,"Kidney concentration, Stone 2004 (radiolabeled compound)",[11]; 0.5 h,9.15 µg/g
same,"Liver concentration, Stone 2004 (radiolabeled compound)",[11]; 0.5 h,5.03 µg/g
same,"Lung concentration, Stone 2004 (radiolabeled compound)",[11]; 0.5 h,5.12 µg/g
same,"Plasma concentration, Stone 2004 (radiolabeled compound)",[11]; 0.5 h,11000 ng/mL
same,"Kidney concentration, Stone 2004 (radiolabeled compound)",[11]; 2 h,10.60 µg/g
same,"Liver concentration, Stone 2004 (radiolabeled compound)",[11]; 2 h,7.04 µg/g
same,"Lung concentration, Stone 2004 (radiolabeled compound)",[11]; 2 h,4.50 µg/g
same,"Plasma concentration, Stone 2004 (radiolabeled compound)",[11]; 2 h,6100 ng/mL
same,"Kidney concentration, Stone 2004 (radiolabeled compound)",[11]; 24 h,11.40 µg/g
same,"Liver concentration, Stone 2004 (radiolabeled compound)",[11]; 24 h,22.20 µg/g
same,"Lung concentration, Stone 2004 (radiolabeled compound)",[11]; 24 h,2.44 µg/g
same,"Plasma concentration, Stone 2004 (radiolabeled compound)",[11]; 24 h,1740 ng/mL
same,"MEC Average (Mode, most frequent MEC)",[12],0.12 µg/mL
same,MEC Range,[12],0.032 to 2 µg/mL
same,MIC90 Average (Geometric Mean MIC),[13],0.25 µg/mL
same,MIC90 Range,[13],0.12 to 4 µg/mL
same,MIC90 Average (Geometric Mean MIC),[14],0.44 µg/mL
same,MIC90 Range,[14],0.2 to 4 µg/mL
same,"MEC Average (Mode, most frequent MEC)",[15],0.06 µg/mL
same,MEC Range,[15],0.016 to 32 µg/mL
same,"MEC Average (Mode, most frequent MEC)",[16],0.06 µg/mL
same,MEC Range,[16],0.016 to 2 µg/mL
same,MIC90,[17],0.06 µg/mL
same,MIC90 Average (Geometric Mean MIC),[18],0.12 µg/mL
same,MIC90 Range,[18],0.06 to .2 µg/mL
same,MIC90,[19],0.06 µg/mL
same,MIC90,[20],2 µg/mL
"CCCCCOc1ccc(-c2ccc(-c3ccc(C(=O)N[C@H]4C[C@@H](O)[C@@H](O)NC(=O)[C@@H]5[C@@H](O)[C@@H](C)CN5C(=O)[C@H]([C@@H](C)O)NC(=O)[C@H]([C@H](O)[C@@H](O)c5ccc(O)cc5)NC(=O)[C@@H]5C[C@@H](O)CN5C(=O)[C@H]([C@@H](C)O)NC4=O)cc3)cc2)cc1 [anidulafungin] ({pTerphenylCO(4''-OnC5H11)}-[Orn(4R-OH,5R-OH)]T[Hyp][hTyr(3S-OH,4S-OH)]T[Pro(3S-OH,4S-Me)]; lactam 1-C)",time levels are maintained above MICs for common pathogens,[21]; rat tissues,≥ 72 h
same,"exposure in tissues (liver, lung, spleen, kidney) relative to plasma",[21]; rat,9-12 fold
same,time to peak concentrations in tissues,[21]; rat,≤ 30 min
"CCCCCOc1ccc(-c2cc(-c3ccc(C(=O)N[C@H]4C[C@@H](O)[C@@H](O)NC(=O)[C@@H]5[C@@H](O)[C@@H](C)CN5C(=O)[C@H]([C@H](O)CC(N)=O)NC(=O)[C@H]([C@H](O)[C@@H](O)c5ccc(O)c(OS(=O)(=O)O)c5)NC(=O)[C@@H]5C[C@@H](O)CN5C(=O)[C@H]([C@@H](C)O)NC4=O)cc3)no2)cc1 [micafungin] (X1-[Orn(4R-OH,5R-OH)]T[Hyp][hTyr(3S-OH,4S-OH,3'-OSO3H)][Gln(3R-OH)][Pro(3S-OH,4S-Me)]; lactam 1-C)",exposure in kidney relative to plasma,[22],3.4 fold
same,exposure in liver relative to plasma,[22],1.6 fold
same,exposure in lung relative to plasma,[22],2.9 fold
